“And” between values parts separate entries of the source, which are not always exact repeats. Identical values can stand only once.
Tested on: DMARD-refractory active RA
Assay: Phase 2a trial of masitinib in DMARD-refractory active RA: efficacy (ACR, ACRn, CRP, DAS28)
Format: in vivo, Human
Parameters: ACRn Mean ± SD / ACRn Median: unit not given here
Description: The main exclusion criteria were patients with: inadequate bone marrow function, defined as an absolute neutrophil count ≦2.5×10^9/litre, and platelets ≦100×10^9/litre; active current infection, history of infection requiring hospitalisation, history of recurrent infections, or treatment with antibiotics within 2 weeks of screening. Treatment wash-out periods observed prior to entry to the study were: a) DMARD use within 4 weeks; b) five half-lives, or wash-out in accordance for a specific drug, whichever is longer; c) any live (attenuated) vaccines taken within 4 weeks; d) use of more than one NSAID or its dosage change within 4 weeks; e) prednisone or equivalent corticosteroid dosage >10 mg/day or any dosage change within 4 weeks; and f) prednisone or equivalent corticosteroid dosage >20 mg administered via intra-articular injection, bolus intramuscular or intravenous treatment within 4 weeks. Other exclusion criteria included any previous use of recombinant interleukin-1 receptor antagonist (IL1-Ra) and patients who were pregnant or nursing.
Efficacy data are presented using descriptive statistics, contrasting initial dosage groups or according to previous DMARD failure. For comparison of groups according to initial dosage on a continuous variable, Student test (with Satterwhaite correction for unequal variance) or Wilcoxon test were used when normality was not rejected or rejected, respectively (normality determined via the Shapiro-Wilk test). For the same comparison on a qualitative variable, Chi-square or Fisher Exact test (if the Chi-square hypotheses were not filled) were used. The rate of patients achieving the various ACR response variables after 12 weeks of treatment (remission rate) are presented in terms of percentage and number of patients. Patients were assigned to either 3 or 6 mg/kg/day treatment groups based upon a randomisation schedule generated for packaging and labelling by the Biostatistics Section of AB Science. Individual treatment doses to be administered were supplied in sealed envelopes to be opened by the investigator at time of inclusion. Patients received the treatment from the investigator on an open basis.
Due to the relatively high patient drop-out rate of this study, analysis was conducted on two different datasets: one with an imputation of missing values according to the last observation carried forward (LOCF) methodology and the other in the absence of data imputation, i.e. the observed cases (OC). Analysis for efficacy was performed on a modified Intention-To-Treat (ITT) population and Per Protocol (PP) population. […] The PP population was defined as a subgroup of the ITT population that in addition had presented no major protocol deviations and had completed at least 28 days of treatment exposure.

[1] = W 60, extension phase, ITT population, n = 8
[2] = W 72, extension phase, ITT population, n = 7
[3] = W 72, extension phase, ITT population, n = 9
[4] = W 84, extension phase, ITT population, n = 4
[5] = W 84, extension phase, ITT population, n = 8
[6] = initial dosage 3 mg/kg/day (n = 22), ITT population
[7] = initial dosage 3 mg/kg/day (n = 22), ITT population, listed as Masitinib
[8] = initial dosage 6 mg/kg/day (n = 18), ITT population
[9] = week 12, ITT LOCF, All patients (n = 34)
[10] = week 12, ITT LOCF, All patients (n = 39)
[11] = week 12, ITT LOCF, Resistance to MTX (n = 28)
[12] = week 12, ITT LOCF, Resistance to MTX (n = 32)
[13] = week 12, ITT LOCF, Resistance to anti-TNFα (n = 18)
[14] = week 12, ITT LOCF, Resistance to anti-TNFα (n = 19)
[15] = week 12, PP OC, All patients (n = 24)
[16] = week 12, PP OC, All patients (n = 27)
[17] = week 12, PP OC, Resistance to MTX (n = 20)
[18] = week 12, PP OC, Resistance to MTX (n = 23)
[19] = week 12, PP OC, Resistance to anti-TNFα (n = 13)
[20] = week 12, PP OC, Resistance to anti-TNFα (n = 14)

Cc1ccc(NC(=O)c2ccc(CN3CCN(C)CC3)cc2)cc1Nc1nc(-c2cccnc2)cs1 [masitinib, 4-(4-methylpiperazin-1-ylmethyl)-N-[4-methyl-3-(4-pyridin-3ylthiazol-2-ylamino)phenyl]benzamide]
ACRn Median [1]: 64.9
ACRn Min-Max [1]: 10.0-93.3
DAS28 <2.6, patients [2]: 1 (14%)
DAS28 Mean ± SD [2]: 3.5 ± 1.5
DAS28 Median [2]: 3.0
DAS28 Min-Max [2]: 1.6-6.1
DAS28 ≦3.2, patients [2]: 4 (57%)
ACR20, patients reaching level [3]: 6 (67%)
ACR50, patients reaching level [3]: 3 (33%)
ACR70, patients reaching level [3]: 2 (22%)
ACR90, patients reaching level [3]: 1 (11%)
ACRn Mean ± SD [3]: 35.6 ± 41.3
ACRn Median [3]: 39.7
ACRn Min-Max [3]: −27.8-97.4
CRP 0% < Improvement ≦25%, patients [3]: 1 (11%)
CRP 25% < Improvement ≦50%, patients [3]: 1 (11%)
CRP Deterioration, patients [3]: 1 (11%)
CRP Improvement >50%, patients [3]: 6 (68%)
CRP Stable, patients [3]: 0 (0%)
DAS28 <2.6, patients [4]: 2 (50%)
DAS28 Mean ± SD [4]: 3.1 ± 1.6
DAS28 Median [4]: 2.5
DAS28 Min-Max [4]: 1.9-5.5
DAS28 ≦3.2, patients [4]: 3 (75%)
ACR20, patients reaching level [5]: 7 (88%)
ACR50, patients reaching level [5]: 5 (63%)
ACR70, patients reaching level [5]: 2 (25%)
ACR90, patients reaching level [5]: 1 (13%)
ACRn Mean ± SD [5]: 50.9 ± 38.0
ACRn Median [5]: 55.0
ACRn Min-Max [5]: −17.6-98.8
CRP 0% < Improvement ≦25%, patients [5]: 1 (13%)
CRP 25% < Improvement ≦50%, patients [5]: 1 (13%)
CRP Deterioration, patients [5]: 1 (13%)
CRP Improvement >50%, patients [5]: 5 (63%)
CRP Stable, patients [5]: 0 (0%)
Share of patients achieving ACR20 who did so at the stated dosage at time of first response (dosage not given): approximately 65%
Share of patients achieving ACR50 who did so at the stated dosage at time of first response (dosage not given): ~73%
Patients achieving up to 90% improvement (ACR90) (extension phase, after 1 year of treatment (60 weeks)): two
Duration over which observed improvement is maintained (extension phase, preliminary): > 84 weeks
Time to first response ACR20, Mean ± SD [6]: 51.9 ± 24.5 days
Time to first response ACR20, Median [6]: 56 days
Time to first response ACR20, Min-Max [6]: 28.0 to 105.0 days
Time to first response ACR50, Mean ± SD [6]: 91.9 ± 59.5 days
Time to first response ACR50, Median [6]: 84 days
Time to first response ACR50, Min-Max [6]: 28.0 to 217.0 days
Time to first response ACR20, Median [7]: 56.0 days
Time to first response ACR50, Median [7]: 84.0 days
Time to first response ACR20, Mean ± SD [8]: 40.3 ± 19.0 days
Time to first response ACR20, Median [8]: 29 days
Time to first response ACR20, Min-Max [8]: 28.0 to 86.0 days
Time to first response ACR50, Mean ± SD [8]: 86.8 ± 61.1 days
Time to first response ACR50, Median [8]: 72.5 days
Time to first response ACR50, Min-Max [8]: 28.0 to 203.0 days
Time to first response ACR20, Median (initial dosage 6 mg/kg/day (n = 18), ITT population, listed as Masitinib): 29.0 days
Patients achieving ACR20 and ΔCRP>50% response criteria (regardless of previous treatment (anti-TNFα or MTX failure)): approximately 50%
Patients with significant reduction (>50%) in CRP levels (week 12): approximately 50%
DAS28 Mean ± SD [9]: 4.8 ± 1.5
DAS28 Min-Max [9]: 0.5-7.0
ΔDAS28 (change in DAS28 score from baseline) [9]: 1.7
ACRn Mean ± SD [10]: 23.0 and 23.0 ± 37.5
ACRn Median [10]: 25.7
ACRn Min-Max [10]: −62.5-87.5
DAS28 Mean ± SD [11]: 4.8 ± 1.5
DAS28 Min-Max [11]: 0.5-7.0
ΔDAS28 (change in DAS28 score from baseline) [11]: 1.8
ACRn Mean ± SD [12]: 24.1 ± 38.8
ACRn Median [12]: 32.7
ACRn Min-Max [12]: −62.5-87.5
DAS28 Mean ± SD [13]: 5.2 ± 1.1
DAS28 Min-Max [13]: 3.3-7.0
ΔDAS28 (change in DAS28 score from baseline) [13]: 1.7
ACRn Mean ± SD [14]: 18.7 ± 36.8
ACRn Median [14]: 20.6
ACRn Min-Max [14]: −62.5-72.2
DAS28 Mean ± SD [15]: 4.6 ± 1.3
DAS28 Min-Max [15]: 0.5-7.0
ΔDAS28 (change in DAS28 score from baseline) [15]: 2.0
ACRn Mean ± SD [16]: 31.6
ACRn Median [16]: 42.9
ACRn Min-Max [16]: −40.0-87.5
DAS28 Mean ± SD [17]: 4.6 ± 1.4
DAS28 Min-Max [17]: 0.5-7.0
ΔDAS28 (change in DAS28 score from baseline) [17]: 2.1
ACRn Mean ± SD [18]: 36.6 ± 31.6
ACRn Median [18]: 46.9
ACRn Min-Max [18]: −40.0-87.5
DAS28 Mean ± SD [19]: 5.1 ± 1.2
DAS28 Min-Max [19]: 3.3-7.0
ΔDAS28 (change in DAS28 score from baseline) [19]: 1.8
ACRn Mean ± SD [20]: 28.1 ± 32.1
ACRn Median [20]: 44.3
ACRn Min-Max [20]: 40.0-72.2
